Source: patent US20110091570A1, “Compositions and Devices for Antisepsis and Anticoagulation” (priority 2008, published 2011)
“And” between values parts separate entries of the source, which are not always exact repeats. Equal entries are not always repeated.

Experiments:
Fibrinogen = target: T1, Fibrinogen (Homo sapiens, UniProt P02671+P02675+P02679); test: Fibrinogen, Multifibren U test; type: biochemical; details: for Fibrinogen, mean value: mean of 11 subjects
T1 construct: from tissue; host or cells: citrated whole blood of volunteers
T1 sequence (P02671 20-629 limits assumed): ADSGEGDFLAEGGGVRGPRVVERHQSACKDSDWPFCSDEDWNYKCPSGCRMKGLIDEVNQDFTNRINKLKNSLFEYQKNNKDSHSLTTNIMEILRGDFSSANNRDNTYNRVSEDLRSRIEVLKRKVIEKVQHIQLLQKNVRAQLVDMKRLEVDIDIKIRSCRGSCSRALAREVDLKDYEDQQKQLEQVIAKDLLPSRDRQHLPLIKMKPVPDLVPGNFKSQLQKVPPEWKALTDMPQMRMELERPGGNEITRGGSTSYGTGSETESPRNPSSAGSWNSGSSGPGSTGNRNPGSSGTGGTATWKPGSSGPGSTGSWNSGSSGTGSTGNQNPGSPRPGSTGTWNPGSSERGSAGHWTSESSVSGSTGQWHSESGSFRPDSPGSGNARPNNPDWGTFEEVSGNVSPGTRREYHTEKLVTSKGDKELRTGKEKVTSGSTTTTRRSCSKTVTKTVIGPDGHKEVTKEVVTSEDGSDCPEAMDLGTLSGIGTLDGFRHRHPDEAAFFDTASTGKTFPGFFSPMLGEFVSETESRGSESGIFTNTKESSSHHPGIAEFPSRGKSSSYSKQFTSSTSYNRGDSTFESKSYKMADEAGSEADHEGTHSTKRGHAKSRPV
T1 sequence (P02675 31-491): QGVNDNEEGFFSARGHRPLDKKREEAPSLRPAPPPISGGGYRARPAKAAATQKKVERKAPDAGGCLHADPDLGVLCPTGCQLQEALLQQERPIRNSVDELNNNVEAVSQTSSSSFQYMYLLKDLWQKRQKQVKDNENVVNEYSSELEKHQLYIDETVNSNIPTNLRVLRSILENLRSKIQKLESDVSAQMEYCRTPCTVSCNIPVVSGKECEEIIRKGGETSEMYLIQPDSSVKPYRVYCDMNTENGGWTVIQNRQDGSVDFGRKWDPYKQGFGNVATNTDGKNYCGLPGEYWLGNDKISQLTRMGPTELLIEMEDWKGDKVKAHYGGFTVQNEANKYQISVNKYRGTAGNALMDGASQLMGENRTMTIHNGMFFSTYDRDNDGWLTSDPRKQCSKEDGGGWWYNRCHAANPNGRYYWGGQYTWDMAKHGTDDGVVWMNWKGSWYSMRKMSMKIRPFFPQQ
T1 sequence (P02679 27-453): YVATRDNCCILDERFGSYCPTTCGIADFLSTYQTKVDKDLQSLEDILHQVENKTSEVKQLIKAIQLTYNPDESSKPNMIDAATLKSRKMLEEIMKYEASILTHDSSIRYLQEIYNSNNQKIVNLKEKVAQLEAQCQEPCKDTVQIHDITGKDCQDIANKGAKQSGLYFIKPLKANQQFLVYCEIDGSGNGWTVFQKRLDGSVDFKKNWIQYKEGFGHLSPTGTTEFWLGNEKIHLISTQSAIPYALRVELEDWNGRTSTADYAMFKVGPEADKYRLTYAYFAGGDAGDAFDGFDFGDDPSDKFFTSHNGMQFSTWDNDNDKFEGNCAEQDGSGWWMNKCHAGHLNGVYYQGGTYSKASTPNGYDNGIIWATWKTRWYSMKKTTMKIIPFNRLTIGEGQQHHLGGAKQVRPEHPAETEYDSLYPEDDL
Method: Whole blood was taken from a single volunteer and enriched with trisodium citrate (0.3 mL of a 0.106 molar solution per 3 mL whole blood) (S-Monovette®, Sarstedt, Nümbrecht, Germany). Portions of 1.8 mL citrate blood were mixed with 0.2 mL NCT in 0.9% saline. The following final (after dilution in blood) NCT concentrations were tested separately: 1% (55 mM); 0.5% (27.5 mM); 0.25% (13.75 mM); 0.1% (5.5 mM); 0.05% (2.75 mM); 0.025% (1.375 mM); and 0.01% (0.55 mM). A control without NCT was performed in parallel. The following commercial coagulation tests were performed according to the prescription of the manufacturer: prothrombin time (PT) was determined using Thromborel® S test (Dade Behring GmbH, Marburg, Germany), activated partial thromboplastin time (aPTT) was determined using Pathromtin* SL test (Dade Behring GmbH, Marburg, Germany); thrombin time (TT) was determined using BC Thrombin Reagent test (Dade Behring GmbH, Marburg, Germany); and fibrinogen was determined using Multifibren* U test (Dade Behring GmbH, Marburg, Germany).
Whole blood was taken from 11 volunteers and enriched with trisodium citrate (0.3 mL of a 0.106 molar solution per 3 mL whole blood) (S-Monovette®, Sarstedt, Nümbrecht, Germany). Commercial coagulation tests (as described in Example 6) were performed with the following samples: […]

[1] = test system: Candida albicans, CBS 5982; test: Fungicidal activity of NCT without and with heparin (CFU counts); type: cell-based; details: 1% NCT, 125 IE/mL heparin, pH 7.1, 37° C., 30-120 min
Method: FIG. 9 presents a plot of fungicidal activity of 1% NCT without and with 125 IE/mL heparin against Candida albicans (CBS 5982) at pH 7.1 and 37° C. Mean values±standard error of the mean of three independent experiments. P>0.05 between NCT without and NCT with heparin.
NCT was dissolved in 0.1 M phosphate buffer containing either 125 IE/mL heparin or no heparin. The final NCT concentration was 1%. Yeast (Candida albicans, CBS 5982) grown in tryptic soy broth overnight was washed twice in saline and then suspended in the NCT and NCT/heparin solutions. Controls were performed with the yeast suspended in 0.1 M phosphate buffer without additives and in 0.1 M phosphate buffer containing 125 IE/mL heparin. After incubation times of 30, 60, 90 and 120 minutes at 37° C. and pH 7.1, aliquots of 100 μL were removed and diluted tenfold or 100-fold in 0.6% sodium thiosulfate solution to inactivate the NCT. Aliquots (50 μL) of these dilutions were spread on tryptic soy agar plates. The plates were incubated at 37° C. and colony forming units of Candida albicans were counted after 24 and 48 hours. The assays were performed three times serially and the mean count was reported (FIG. 9). […] Statistical analysis was performed by Student's paired t test and one way analysis of variance (P>0.05 between NCT without and NCT with heparin). […]

For `O=S(=O)(O)CCNCl` [NCT, N-chlorotaurine], the Fibrinogen (Fibrinogen; Example 6, single volunteer, 0.01% (0.55 mM) NCT final) was 281.4, the Fibrinogen (Fibrinogen; Example 6, single volunteer, 0.025% (1.375 mM) NCT final) was 199.4 and the Fibrinogen (Fibrinogen; Example 6, single volunteer, 0.05% (2.75 mM) NCT final) was “not detectable”. The Fibrinogen (Fibrinogen; Example 6, single volunteer, 0.1% (5.5 mM) NCT final) was “not detectable”, the Fibrinogen (Fibrinogen; Example 6, single volunteer, 0.25% (13.75 mM) NCT final) was “not detectable” and the Fibrinogen (Fibrinogen; Example 6, single volunteer, 0.5% (27.5 mM) NCT final) was “not detectable”. The Fibrinogen (Fibrinogen; Example 6, single volunteer, 1% (55 mM) NCT final) was “not detectable”, the Fibrinogen (Fibrinogen; Example 7, 0.01% NCT, individual subjects 1-11) was 170 mg/dL and 112 mg/dL and 240 mg/dL and 87 mg/dL and 194 mg/dL and 178 mg/dL and 226 mg/dL and 237 mg/dL and 224 mg/dL and 230 mg/dL and 215 mg/dL and the “Fibrinogen, mean value” (Fibrinogen; Example 7, 0.01% NCT) was 192.1 mg/dL. The Fibrinogen (Fibrinogen; Example 7, 0.025% NCT, individual subjects 1-11) was 40 mg/dL, the “Fibrinogen, mean value” (Fibrinogen; Example 7, 0.025% NCT) was 40.0 mg/dL and the “killing activity of NCT without vs with heparin” value [1] was “no statistically significant difference in the killing activity”.
